{
  "source": "patent US8357703B2",
  "about": "“Pyridines” (Hoffmann-La Roche Inc., priority 2009, dated 2013)",
  "note": "pKi: −log10 of the molar value.",
  "data": [
    {"target": "T1, human GABA A α5β3γ2 receptor (Homo sapiens, UniProt P18507+P31644)", "T1 construct": "expressed in transfected cells; host or cells: HEK293 (transiently transfected), membranes", "test": "[3H]flumazenil competition binding to HEK293 cells expressing human GABA A receptors", "details": "competition for [3H]flumazenil (0.5 nM for α5); HEK293 cells expressing human (transiently transfected) receptors; means of two determinations; read-out: hKi GABA Aα5", "protocol": "The affinity of compounds at GABA A receptor subtypes was measured by competition for [^3H]flumazenil (85 Ci/mmol; Roche) binding to HEK293 cells expressing rat (stably transfected) or human (transiently transfected) receptors of composition α1β3γ2, α2β3γ2, α3β3γ2 and α5β3γ2.\nCell pellets were suspended in Krebs-tris buffer (4.8 mM KCl, 1.2 mM CaCl2, 1.2 mM MgCl2, 120 mM NaCl, 15 mM Tris; pH 7.5; binding assay buffer), homogenized by polytron for ca. 20 sec on ice and centrifuged for 60 min at 4° C. (50000 g; Sorvall, rotor: SM24=20000 rpm). The cell pellets were resuspended in Krebs-tris buffer and homogenized by polytron for ca. 15 sec on ice. Protein was measured (Bradford method, Bio-Rad) and aliquots of 1 mL were prepared and stored at −80° C.\nRadioligand binding assays were carried out in a volume of […] (96-well plates) which contained […] of cell membranes, [^3H]flumazenil at a concentration of 1 nM for α1, α2, α3 subunits and 0.5 nM for α5 subunits and the test compound in the range of […]. Nonspecific binding was defined by 10^−5 M diazepam and typically represented less than 5% of the total binding. Assays were incubated to equilibrium for 1 hour at 4° C. and harvested onto GF/C uni-filters (Packard) by filtration using a Packard harvester and washing with ice-cold wash buffer (50 mM Tris; pH 7.5). After drying, filter-retained radioactivity was detected by liquid scintillation counting. Ki values were calculated using Excel-Fit (Microsoft) and are the means of two determinations.\nRepresentative test results, obtained by the above described assay measuring binding affinity to HEK293 cells expressing human (h) receptors, are shown in table 1 below.", "values": [
      {"smiles": "CCCCc1noc(C)c1COc1ccc(C(=O)NC(C)CO)cn1", "note": "(racemic) [Example 9, Rac-6-((3-Butyl-5-methyl-isoxazol-4-yl)methoxy)-N-(2-hydroxy-1-methyl-ethyl)-nicotinamide]", "pKi": 8.51},
      {"smiles": "CCCCc1noc(C)c1COc1ccc(C(=O)NC(C)(C)CO)cn1", "note": "[Example 8, 6-((3-Butyl-5-methyl-isoxazol-4-yl)methoxy)-N-(2-hydroxy-1,1-dimethyl-ethyl)-nicotinamide]", "pKi": 7.82},
      {"smiles": "CCCCc1noc(C)c1CNc1ccc(C(=O)NC2CCOCC2)cn1", "note": "[Example 44, 6-[((3-Butyl-5-methyl-isoxazol-4-yl)methyl)-amino]-N-(tetrahydro-pyran-4-yl)-nicotinamide]", "pKi": 7.17},
      {"smiles": "CCCCc1noc(C)c1COc1ccc(C(=O)N[C@@H](C)C(F)(F)F)cn1", "note": "[Example 19, 6-((3-Butyl-5-methyl-isoxazol-4-yl)methoxy)-N—((S)-2,2,2-trifluoro-1-methyl-ethyl)-nicotinamide]", "pKi": 8.08},
      {"smiles": "CCCc1noc(C)c1COc1ccc(C(=O)NC(C)C)cn1", "note": "[Example 1, N-Isopropyl-6-((5-methyl-3-propyl-isoxazol-4-yl)methoxy)-nicotinamide]", "pKi": 7.34},
      {"smiles": "CCCCc1nocc1COc1ccc(C(=O)NC2CCOCC2)cn1", "note": "[Example 27, 6-((3-Butyl-isoxazol-4-yl)methoxy)-N-(tetrahydro-pyran-4-yl)-nicotinamide]", "pKi": 7.28},
      {"smiles": "CCCCc1noc(C)c1COc1ccc(C(=O)N2CCS(=O)(=O)CC2)cn1", "note": "[Example 18, [6-((3-Butyl-5-methyl-isoxazol-4-yl)methoxy)-pyridin-3-yl]-(1,1-dioxo-1,6-thiomorpholin-4-yl)-methanone]", "pKi": 7.68},
      {"smiles": "Cc1onc(C2CCCC2)c1COc1ccc(C(=O)NC(C)C)cn1", "note": "[Example 30, 6-((3-Cyclopentyl-5-methyl-isoxazol-4-yl)methoxy)-N-isopropyl-nicotinamide]", "pKi": 7.42},
      {"smiles": "Cc1onc(C2CCOCC2)c1COc1ccc(C(=O)N[C@@H](C)CO)cn1", "note": "[Example 38, N—((S)-2-Hydroxy-1-methyl-ethyl)-6-[(5-methyl-3-(tetrahydro-pyran-4-yl)-isoxazol-4-yl)methoxy]-nicotinamide]", "pKi": 7.38},
      {"smiles": "CCCCc1nocc1COc1ccc(C(=O)NCC(F)(F)F)cn1", "note": "[Example 26, 6-((3-Butyl-isoxazol-4-yl)methoxy)-N-(2,2,2-trifluoro-ethyl)-nicotinamide]", "pKi": 7.35},
      {"smiles": "CCCCc1noc(C)c1COc1ccc(C(=O)NC2CC2)cn1", "note": "[Example 6, 6-((3-Butyl-5-methyl-isoxazol-4-yl)methoxy)-N-cyclopropyl-nicotinamide]", "pKi": 8.19},
      {"smiles": "Cc1onc(C2CCCCC2)c1COc1ccc(C(=O)NC(C)C)cn1", "note": "[Example 31, 6-((3-Cyclohexyl-5-methyl-isoxazol-4-yl)methoxy)-N-isopropyl-nicotinamide]", "pKi": 8.37},
      {"smiles": "CCCCc1noc(C)c1COc1ccc(C(=O)NCC(C)O)cn1", "note": "(centres unmarked) [Example 17, 6-((3-Butyl-5-methyl-isoxazol-4-yl)methoxy)-N-(2-hydroxy-propyl)-nicotinamide]", "pKi": 8.28},
      {"smiles": "CCCCc1noc(C)c1CNc1ccc(C(=O)NC(C)C)cn1", "note": "[Example 42, 6-[((3-Butyl-5-methyl-isoxazol-4-yl)methyl)-amino]-N-isopropyl-nicotinamide]", "pKi": 7.24},
      {"smiles": "Cc1onc(C2CCCCC2)c1COc1ccc(C(=O)NC2CC2)cn1", "note": "[Example 32, 6-((3-Cyclohexyl-5-methyl-isoxazol-4-yl)methoxy)-N-cyclopropyl-nicotinamide]", "pKi": 8.33},
      {"smiles": "CCCCc1noc(C)c1COc1ccc(C(=O)NCC(C)(C)O)cn1", "note": "[Example 13, 6-((3-Butyl-5-methyl-isoxazol-4-yl)methoxy)-N-(2-hydroxy-2-methyl-propyl)-nicotinamide]", "pKi": 8.04},
      {"smiles": "Cc1onc(OCC(C)C)c1COc1ccc(C(=O)NC(C)C)cn1", "note": "[Example 39, 6-((3-Isobutoxy-5-methyl-isoxazol-4-yl)methoxy)-N-isopropyl-nicotinamide]", "pKi": 8.33},
      {"smiles": "CCCCc1nocc1COc1ccc(C(=O)N[C@@H](C)CO)cn1", "note": "[Example 28, 6-((3-Butyl-isoxazol-4-yl)methoxy)-N—((S)-2-hydroxy-1-methyl-ethyl)-nicotinamide]", "pKi": 7.44},
      {"smiles": "CCCCc1noc(C)c1COc1ccc(C(=O)NC(CO)CO)cn1", "note": "[Example 15, 6-((3-Butyl-5-methyl-isoxazol-4-yl)methoxy)-N-(2-hydroxy-1-hydroxymethyl-ethyl)-nicotinamide]", "pKi": 8.24},
      {"smiles": "Cc1onc(CCC(F)(F)F)c1COc1ccc(C(=O)NC(C)C)cn1", "note": "[Example 3, N-Isopropyl-6-[(5-methyl-3-(3,3,3-trifluoro-propyl)-isoxazol-4-yl)methoxy]-nicotinamide]", "pKi": 7.31},
      {"smiles": "CCCc1noc(C)c1COc1ccc(C(=O)NC2CCOCC2)cn1", "note": "[Example 2, 6-((5-Methyl-3-propyl-isoxazol-4-yl)methoxy)-N-(tetrahydro-pyran-4-yl)-nicotinamide]", "pKi": 7.29},
      {"smiles": "CCCCc1noc(C)c1COc1ccc(C(=O)NC(C)C)cn1", "note": "[Example 5, 6-((3-Butyl-5-methyl-isoxazol-4-yl)methoxy)-N-isopropyl-nicotinamide]", "pKi": 8.39},
      {"smiles": "CCCCc1noc(C)c1COc1ccc(C(=O)N2CCC2)cn1", "note": "[Example 22, Azetidin-1-yl-[6-((3-butyl-5-methyl-isoxazol-4-yl)methoxy)-pyridin-3-yl]-methanone]", "pKi": 7.46},
      {"smiles": "Cc1onc(C2CCCCC2)c1COc1ccc(C(=O)NC(C)(C)CO)cn1", "note": "[Example 35, 6-((3-Cyclohexyl-5-methyl-isoxazol-4-yl)methoxy)-N-(2-hydroxy-1,1-dimethyl-ethyl)-nicotinamide]", "pKi": 7.69},
      {"smiles": "CCCCc1noc(C)c1COc1ccc(C(=O)NC2(C)CC2)cn1", "note": "[Example 21, 6-((3-Butyl-5-methyl-isoxazol-4-yl)methoxy)-N-(1-methyl-cyclopropyl)-nicotinamide]", "pKi": 7.94},
      {"smiles": "CCCCc1nocc1COc1ccc(C(=O)NC(C)C)cn1", "note": "[Example 25, 6-((3-Butyl-isoxazol-4-yl)methoxy)-N-isopropyl-nicotinamide]", "pKi": 7.39},
      {"smiles": "CCCCc1noc(C)c1CNc1ccc(C(=O)NC(C)CO)cn1", "note": "(centres unmarked) [Example 43, 6-[((3-Butyl-5-methyl-isoxazol-4-yl)methyl)-amino]-N-(2-hydroxy-1-methyl-ethyl)-nicotinamide]", "pKi": 7.11},
      {"smiles": "CCCC(C)c1noc(C)c1COc1ccc(C(=O)NC(C)C)cn1", "note": "(centres unmarked) [Example 29, N-Isopropyl-6-[(5-methyl-3-(1-methyl-butyl)-isoxazol-4-yl)methoxyl]-nicotinamide]", "pKi": 7.15},
      {"smiles": "Cc1onc(N2CCCC2)c1COc1ccc(C(=O)NC(C)C)cn1", "note": "[Example 40, N-Isopropyl-6-((5-methyl-3-pyrrolidin-1-yl-isoxazol-4-yl)methoxy)-nicotinamide]", "pKi": 8.40},
      {"smiles": "CCCCc1noc(C)c1COc1ccc(C(=O)NCCO)cn1", "note": "[Example 10, 6-((3-Butyl-5-methyl-isoxazol-4-yl)methoxy)-N-(2-hydroxy-ethyl)-nicotinamide]", "pKi": 8.24},
      {"smiles": "CCCCc1noc(C)c1COc1ccc(C(=O)Nc2ccn(C)n2)cn1", "note": "[Example 24, 6-((3-Butyl-5-methyl-isoxazol-4-yl)methoxy)-N-(1-methyl-1H-pyrazol-3-yl)-nicotinamide]", "pKi": 7.97},
      {"smiles": "CCCCc1noc(C)c1COc1ccc(C(=O)N[C@@H](C)CO)cn1", "note": "[Example 12, (−)-6-((3-Butyl-5-methyl-isoxazol-4-yl)methoxy)-N-(2-hydroxy-1-methyl-ethyl)-nicotinamide]", "pKi": 8.42},
      {"smiles": "Cc1onc(C2CCCCC2)c1COc1ccc(C(=O)NC(C)CO)cn1", "note": "(centres unmarked) [Example 36, 6-((3-Cyclohexyl-5-methyl-isoxazol-4-yl)methoxy)-N-(2-hydroxy-1-methyl-ethyl)-nicotinamide]", "pKi": 8.43},
      {"smiles": "CCCCc1noc(C)c1COc1ccc(C(=O)NC2CCOC2)cn1", "note": "(centres unmarked) [Example 14, 6-((3-Butyl-5-methyl-isoxazol-4-yl)methoxy)-N-(tetrahydro-furan-3-yl)-nicotinamide]", "pKi": 8.30},
      {"smiles": "CCCCc1noc(C)c1COc1ccc(C(=O)N[C@H]2CCOC2)cn1", "note": "[Example 16, 6-((3-Butyl-5-methyl-isoxazol-4-yl)methoxy)-N-(S)-tetrahydro-furan-3-yl-nicotinamide]", "pKi": 8.19},
      {"smiles": "CCCCc1noc(C)c1COc1ccc(C(=O)Nc2cnn(C)c2)cn1", "note": "[Example 23, 6-((3-Butyl-5-methyl-isoxazol-4-yl)methoxy)-N-(1-methyl-1H-pyrazol-4-yl)-nicotinamide]", "pKi": 8.66},
      {"smiles": "Cc1onc(C2CCCCC2)c1COc1ccc(C(=O)NC2CCOCC2)cn1", "note": "[Example 33, 6-((3-Cyclohexyl-5-methyl-isoxazol-4-yl)methoxy)-N-(tetrahydro-pyran-4-yl)-nicotinamide]", "pKi": 8.28},
      {"smiles": "CCCCc1noc(C)c1COc1ccc(C(=O)NC2CCOCC2)cn1", "note": "[Example 7, 6-((3-Butyl-5-methyl-isoxazol-4-yl)methoxy)-N-(tetrahydro-pyran-4-yl)-nicotinamide]", "pKi": 8.28}
    ]}
  ]
}
